Experiment: Henry's Law constant (molality scale); of the first substance listed, at infinite dilution; mn = molality of the nth substance listed, in mol/kg
Conditions: Liquid, m1 = 0

O=C=O [carbon dioxide] + CCCCn1cc[n+](C)c1.F[P-](F)(F)(F)(F)F
Conditions	Henry's Law constant [kPa·kg/mol]
293.15 K	1200
313.15 K	1890
333.15 K	2700
353.15 K	3570
373.15 K	4470
393.15 K	5490

From the NIST ThermoML archive (doi:10.1021/je034023f)
